Source: patent US20180305524A1, “Inulin Nanofibers” (The American University in Cairo, priority 2014, published 2018)

How the values were obtained:
[1] = system: bifidobacteria and lactobacillus; conditions: in vitro; cited from earlier work
[2] = system: gut bifidobacteria; conditions: IBS patients; cited from earlier work
[3] = system: S. aureus; assay: Antibacterial activity, cork-borer method, inhibition zone with S. aureus; assay type: cell-based
Description: (§1) Polyvinyl Alcohol (PVA)/Inulin nanofibers are manufactured using electrospinning technique and tested for their prebiotic activity with Lactobacillus sp. and antibacterial activity with E. coli and S. aureus. After characterization and cross-linking of the produced PVA/Inulin Electrospun composite nanofibers (CNF), they were tested for their prebiotic activity with Lactobacillus sp. by viable count, optical density, pH and growth curve, and antibacterial activity with E. coli and S. aureus, by the cork-borer method, measuring the inhibition zone and the inhibition curve.
(§2) FIGS. 4A-B show according to an exemplary embodiment of the invention in FIG. 4A an inhibition zone of PVA electrospun Nanofibers, inulin solution, PVA/Inulin electrospun CNFs, antibiotic and water with E. coli, in FIG. 4B an inhibition zone of PVA electrospun Nanofibers, inulin solution, PVA/Inulin electrospun CNFs, antibiotic and water with S. aureus.

[4] = system: Lactobacillus sp.; assay: Prebiotic activity with Lactobacillus sp. culture (total viable count, pH, optical density after 24 hours incubation); assay type: cell-based
Description: as §1
FIGS. 2A-C show according to an exemplary embodiment of the invention in FIG. 2A Total viable count, FIG. 2B pH, and FIG. 2C Optical density of Lactobacillus sp. culture containing PVA electrospun Nanofibers, inulin solution, PVA/Inulin electrospun CNFs, and water after 24 hours of incubation.
Prebiotic activity was carried out using Lactobacillus sp. to assess the growth activity by calculating the i) total viable counts, ii) pH, iii) optical density (OD), and iv) growth curve.
The pH and the OD of the culture inoculated with the tested material were measured before incubation and after 24 hours incubation. PVA/Inulin electrospun CNFs solution decreased the pH to 5.7 compared to 6.3 for the control.

[5] = system: Bifidobacterium bifidum culture; conditions: inulin extracted from artichoke; cited from earlier work
[6] = system: E. coli; assay: Antibacterial activity, cork-borer method, inhibition zone with E. coli; assay type: cell-based
Description: as §1, §2

| Substance | prebiotic effectiveness [1] | effectiveness as a prebiotic [2] | inhibition zone [3] | pH of the culture ([4]; after 24 hours incubation, control 6.3) | lactobacillus growth (total viable count) ([4]; after 24 hours of incubation) | growth of B. bifidum [5] | inhibition zone [6] |
| --- | --- | --- | --- | --- | --- | --- | --- |
| oligofructose [oligofructose (OF)] | clear prebiotic effectiveness | – | – | – | – | – | – |
| galactooligosaccharides | – | effective as a prebiotic | – | – | – | – | – |
| inulin [inulin solution] | clear prebiotic effectiveness | – | didn't show any visible zone of inhibition | 6.2 | 2.9×10^3 cfu/mL | increased the growth | didn't show any visible zone of inhibition |
